From article PMC12764776, “Structural basis of specific lysine transport by Pseudomonas aeruginosa permease LysP” (Nature Communications, 2025)

What was measured:
[1] = target: T1, lysine-specific permease (LysP) (Pseudomonas aeruginosa, UniProt Q9HVG3); assay: microscale thermophoresis; format: binding; parameters: purified GFP-free LysP in LMNG
[2] = target: T1, lysine-specific permease (LysP); assay: microscale thermophoresis; inhibition of [3H]L-lysine transport in LysP proteoliposomes; format: binding; parameters: purified GFP-free LysP in LMNG
[3] = target: T1, lysine-specific permease (LysP); assay: cryo-EM structure ([…] Å) and microscale thermophoresis; [3H]L-lysine transport in proteoliposomes (cold L-lysine IC50 […]); format: binding; parameters: purified GFP-free LysP in LMNG (MST); LysP-Nb5755 complex (cryo-EM); with nanobody Nb5755 (cryo-EM structure only)
[4] = target: T2, LysP-GFP fusion (P. aeruginosa LysP with GFP-His8) (P. aeruginosa strain PAO1, UniProt Q9HVG3); assay: GFP thermal shift (GFP-TS) assay; membranes with LysP-GFP solubilised in 150 mM NaCl, 20 mM Tris-HCl pH 7.5, 1% DDM with or without 1 uM Nb5755, 1 h at 4 °C; 1% beta-OG added; heated 10 min at 4-100 °C; GFP fluorescence of the supernatant; conditions: one partner purified
T2 construct: lysine-specific permease LysP, P. aeruginosa strain PAO1, UniProt Q9HVG3; the same construct as m1 in pWaldo-GFPd, with the GFP-His8 fusion not cut off; The GFP fluorescence is the read-out of the GFP-TS assay; source: E. coli (DE3) C43, in membranes solubilised with 1% DDM, not purified

NCCCC[C@@H](N)C(=O)O [D-lysine]
Kd [1]: 151 µM

NCCSC[C@H](N)C(=O)O [L-4-thialysine, S-(2-aminoethyl)-L-cysteine]
Kd [2]: 31 µM

NCCCC[C@H](N)C(=O)O [L-lysine]
Kd [3]: 14 µM

B1: nanobody Nb5755 (VHH)
VHH: QVQLQESGGGLVQGGSLRLSCAASGRTFSIYGMAWVRQASGKEREFVAAMPRGGGTTNYADSVKGRFSISRDNAKNTVDLQMNSLKPEDTAVYYCVADRGFTLRLGIQHDYWGQGTQVTVSS
notes: raised in a llama immunised with LysP and selected by phage display; Library cloned into the phage display vector pMESy4, which bears the C-terminal His6 and EPEA tags; also called Nanobody 5755; CA5755; source: E. coli BL21 (DE3), periplasm, purified (Ni-NTA, SEC)
increase in melting temperature [4]: 20 °C
